“And” between values parts separate entries of the source, which are not always exact repeats. Equal entries are not always repeated.
What was measured:
[1] = MTT cell viability assay on macrophages; assay type: cell-based, murine; settings: mouse, J774.A1 macrophage cells; Table 1; macrophages
Experimental: (§1) The J774.A1 murine macrophage cells were grown in Roswell Park Memorial Institute (RPMI) 1640 medium in the presence of 10% (v/v) FBS and 100 U/ml penicillin−100 µg/ml streptomycin (Gibco, Invitrogen, Thermo Fisher Scientific, NY, USA) at 37°C (humidified) and 5% CO2. […] Madin–Darby canine kidney (MDCK) cells were obtained from the National Centre for Cell Science, Pune, India. MDCK cells were derived from the kidney tissue of an adult female Cocker Spaniel. These were grown in Dulbecco’s modified Eagle’s minimal essential medium (DMEM) in the presence of 10% (v/v) FBS and 100 U/ml penicillin−100 µg/ml streptomycin (Gibco, Invitrogen, Thermo Fisher Scientific, NY, USA) at 37°C (humidified) and 5% CO2 ([Ayana et al., 2018]; [Shivappagowdar et al., 2021]).
(§2) All the compounds were dissolved in dimethyl sulfoxide (DMSO) (Sigma-Aldrich) for 1 mM stock solution and were screened against promastigotes at a concentration of 5 µM. For Glycosides (Gly) 2, 6, and 8, a range of concentrations starting from 100 nM to 100 µM were screened against promastigote forms of parasite and mammalian cells. Parasites (AG83 and PKDL strain) treated with amphotericin B (3 µg/ml) (Sigma-Aldrich) were maintained as the positive control.
(§3) To evaluate the cytotoxic effects of 12 compounds on L. donovani promastigotes, LDH assay was performed. This assay involves the reduction of tetrazolium salts to formazan during LDH-mediated catalysis of lactate to pyruvate, which can be detected at […]. Rate of formazan formation is proportional to the release of LDH through damaged cell membranes. For the preliminary screening, the promastigotes were incubated with 12 compounds at a single concentration of 5 µM for a period of 72 h, and the released LDH was estimated ( Supplementary Figure S1A ). Amphotericin B-treated promastigotes were taken as the positive control. […] Having observed the antileishmanial effect of Gly2 on growth and proliferation of promastigotes, we next investigated the cytotoxicity of Gly2 on mammalian cells (MDCK, J774.1A) through MTT (3-(4, 5-dimethylthiazolyl-2)-2, 5-diphenyltetrazolium bromide) cell viability assay ( Supplementary Figures S1B, C ). […] The CC50 values of Gly2 analog was in the micromolar range. The selectivity index (SI) for the compound was calculated as the ratio between cytotoxicity (CC50) and activity (IC50) against promastigotes ( Table 1 ).

[2] = tested on: J774.A1 murine macrophage cells; assay: MTT cell viability assay on macrophages; assay type: cell-based; settings: MTT assay
Experimental: as §1, §2, §3

[3] = tested on: L. donovani promastigotes; assay: Hoechst/PI live/dead dual staining of promastigotes; assay type: cell-based, Leishmania donovani; settings: 5 µM, 72 h
Experimental: The toxic effect of the three compounds, Gly2, 6, and 8 on promastigotes at 5 µM >IC50 concentration was measured by Hoechst and propidium iodide (PI) double staining. […], parasites were harvested, washed in 0.01 M PBS (pH = 7.4), and stained with Hoechst 33258 (1 µg/ml) (Life Technologies, USA) and PI (5 µg/ml) (Life Technologies, USA) followed by incubation for a period of 20 min at 37°C. Subsequently, cells were washed for excessive stain removal and visualized using fluorescence microscope with 510–560-nm filter block for PI red fluorescence and excitation/emission spectra at 361/497 for Hoechst ([López-Arencibia et al., 2015]).

AG83 promastigotes = assay: CFDA-SE promastigote proliferation assay (FACS); assay type: cell-based, Leishmania donovani; settings: 5 µM
Experimental: AG83 parasite growth and multiplication were assessed by fluorescence-activated cell sorting and fluorescence microscopy with 6-carboxyfluorescein diacetate succinimidyl ester (CFDA-SE, Life Technologies, USA) as a probe. Promastigotes were washed thrice with PBS. The cells were labeled with CFDA-SE dye and were then incubated at 37°C for 10 min. These cells were then resuspended in ice-cold M199 medium. Furthermore, they were centrifuged at 1,200 g for 10 min (4°C) and resuspended in fresh medium. Cells were treated with the Gly2 and were analyzed through BD FACS DIVA for 3 consecutive replicates after 0, 24, 48, and 72 h, respectively ([Messaritakis et al., 2010]).

[4] = tested on: L. donovani intracellular amastigotes in J774.A1 macrophages; assay: Intramacrophage amastigote assay (Giemsa staining, J774.A1); assay type: cell-based, Leishmania donovani; settings: treated at IC50 concentration, 24 h; untreated control ~5
Experimental: For evaluating the efficacy of compounds against intramacrophage amastigotes, Giemsa staining (Sigma-Aldrich) was performed. J774.A1 murine macrophage cells were plated at a cell density of 5 × 10^5 cell/well in a 6-well flat bottom plate. The cells were infected with late-stage L. donovani, rich in promastigotes at a ratio of 10:1. After 6 h, uninfected promastigotes were washed off with PBS.

[5] = tested on: L. donovani promastigotes; assay: Complement-mediated cytolysis of promastigotes by PI uptake (10% NHS); assay type: cell-based, Leishmania donovani
Experimental: Parasites with an optimum 10% non-heat-inactivated normal human serum (NHS) were incubated with Gly2 at 5-µM concentration for 15 min. Promastigote lysis was detected by uptake of PI, by use of a FACS Diva flow cytometer (Beckton-Dickinson, Pharmingen), in accordance with the manufacturer’s protocol. Promastigotes were washed for excessive stain removal and filter block for PI red fluorescence, 510–560 nm was used ([Moreno et al., 2010]).

Q: For `CC(C)CCOC1O[C@H](CO)[C@@H](O)[C@H](O)[C@H]1O` (stereo partly drawn) [Gly2], which CC50 [1] is on record?
A: Its CC50 is 2900 µM.

Q: And the “cytotoxicity in macrophage cells” value [2]?
A: The value was “minimum level of cytotoxicity”.

Q: What about the “dead parasites (PI positive)” value [3] of the same compound?
A: The value was ~ 94% and ~ 94.15% and ~ 90%.

Q: What about the “percentage of CFDA-positive cells” value (AG83 promastigotes; 24 h) of the same compound?
A: Its value is 81.59%.

Q: What about the “percentage of CFDA-positive cells” value (AG83 promastigotes; 48 h) of the same compound?
A: The value was 74.68%.

Q: What about the “percentage of CFDA-positive cells” value (AG83 promastigotes; 72 h) of the same compound?
A: The value was 68.48%.

Q: And the “number of amastigotes per infected macrophage” value [4]?
A: The value was ~ 1 amastigotes/macrophages.

Q: What about the “promastigote death (PI uptake)” value ([5]; 10% NHS, Gly2 at 5 µM where treated, control in 10% heat-inactivated FBS 0.06%) of the same compound?
A: The value was ~ 80%.

Q: And the “increment in PI uptake” value ([5]; Gly2 + 10% NHS vs 10% NHS alone)?
A: Its value is 24.65%.
